Legend:
[1] = tested on: E. coli S30 extract (bacterial protein synthesis); test: E. coli S30 extract coupled transcription-translation luciferase assay (inhibition of bacterial protein synthesis); assay type: biochemical; details: class by IC50 or % inhibition @ 1 μM, read-out: S30 IC50 (μM/% inhib.)
In short: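 Luciferase luminescence quantified inhibition of protein synthesis relative to water controls, with no-DNA reactions giving background. Compounds in 2-fold serial dilution (8 levels) were incubated 1 hour at 37 °C with E. coli S30 extract, amino acids and pBESTluc plasmid, then chilled to stop.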

[2] = target: Rabbit Reticulocyte Lysate (eukaryotic protein synthesis); test: Rabbit reticulocyte lysate luciferase assay (inhibition of eukaryotic protein synthesis); assay type: biochemical; details: class by IC50 or % inhibition @ 1 μM, read-out: Rabbit reticulocyte IC50 (μM/% inhib.)
In short: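 Percent inhibition calculated against water-only controls from luminescence; background set by lysate lacking RNA. Compounds, 8-point 2-fold titration, incubated 90 minutes at 30° C with nuclease-treated rabbit reticulocyte lysate programmed with luciferase control RNA plus complete amino acids.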

A. baumannn (Ab) = test: Broth microdilution minimum inhibitory concentration (MIC), CLSI; assay type: cell-based; details: for MIC: Acinetobacter baumannii, read-out: Ab + bicarb MIC
In short: (§1)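 Two-fold serial dilutions in CAMHB, optionally with sodium bicarbonate (6.25 or 25 mM final) or heat-inactivated human serum (0-50%), 8 concentrations, triplicate. Inoculum 5×10^4 CFU/well from log-phase cultures grown at 35±2 °C to 0.5 McFarland.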

E. coli (Ec) = test: as above; assay type: cell-based; details: growth medium supplemented with sodium bicarbonate; for MIC: Escherichia coli, read-out: E. coli + bicarb MIC
In short: as §1

E. faecalis (Ef) = test: as above; assay type: cell-based; details: growth medium supplemented with sodium bicarbonate; for MIC: Enterococcus faecalis, read-out: Ef + bicarb MIC
In short: as §1

P. aeruginosa (Pa) = test: as above; assay type: cell-based; details: growth medium supplemented with sodium bicarbonate; for MIC: Pseudomonas aeruginosa, read-out: Pa MIC + bicarb
In short: as §1

S. aureus (Sa) = test: as above; assay type: cell-based; details: growth medium supplemented with sodium bicarbonate; for MIC: Staphylococcus aureus, read-out: Sa + bicarb MIC
In short: as §1

Compound	IC50 [1]	IC50 [2]	MIC (A. baumannn (Ab))	MIC (E. coli (Ec))	MIC (E. faecalis (Ef))	MIC (P. aeruginosa (Pa))	MIC (S. aureus (Sa))	Ef + bicarb MIC (E. faecalis (Ef))	Ab + bicarb MIC (A. baumannn (Ab); A. baumannii, growth medium supplemented with sodium bicarbonate)	E. coli + bicarb MIC (E. coli (Ec))	Pa MIC + bicarb (P. aeruginosa (Pa))	Sa + bicarb MIC (S. aureus (Sa))
CC(C)(N)C(=O)N1CCN(C(=O)Nc2ccn(-c3ccc(CN4C[C@@H]5[C@@H](N)[C@@H]5C4)cc3)c(=O)n2)CC1 [Compound 65]	< 0.5 µM	≥ 1 µM	8 to 32 mg/L	< 8 mg/L	< 8 mg/L	> 32 mg/L	< 8 mg/L					
CC(C)(N)C(=O)N1CCN(C(=O)Nc2ccn(-c3ccc(CN4C[C@@H]5[C@@H](N)[C@@H]5[C@H]4CO)cc3)c(=O)n2)CC1 [Compound 66]	0.5 to 1 µM	≥ 1 µM	> 32 mg/L	< 8 mg/L	> 32 mg/L	> 32 mg/L	8 to 32 mg/L					
CC(c1ccc(-n2ccc(NC(=O)N3CCN(C(=O)C(C)(C)N)CC3)nc2=O)cc1)N1C[C@@H]2[C@@H](N)[C@@H]2C1 (stereo partly drawn) [Compound 67]	< 0.5 µM	≥ 1 µM	> 32 mg/L	< 8 mg/L	< 8 mg/L	> 32 mg/L	< 8 mg/L					
CC(C)(N)C(=O)N1CCN(C(=O)Nc2ccn(-c3ccc(CN4C[C@@H]5[C@@H](CN)[C@@H]5C4)cc3)c(=O)n2)CC1 [Compound 68]	< 0.5 µM	≥ 1 µM	> 32 mg/L	< 8 mg/L	> 32 mg/L	> 32 mg/L	< 8 mg/L					
CC(N)[C@H]1[C@@H]2CN(Cc3ccc(-n4ccc(NC(=O)N5CCN(C(=O)C(C)(C)N)CC5)nc4=O)cc3)C[C@@H]21 (stereo partly drawn) [Compound 73]	< 0.5 µM	≥ 1 µM	> 32 mg/L	< 8 mg/L	8 to 32 mg/L	> 32 mg/L	< 8 mg/L					
CC(C)(N)C(=O)N1CCN(C(=O)Nc2ccn(-c3ccc(CN4C[C@@H]5[C@H](C4)[C@H]5C(N)=O)cc3)c(=O)n2)CC1 [Compound 74]	≥ 1 µM	≥ 1 µM	> 32 mg/L	8 to 32 mg/L	> 32 mg/L	> 32 mg/L	8 to 32 mg/L					
CNC[C@@H]1[C@H]2CN(Cc3ccc(-n4ccc(NC(=O)N5CCN(C(=O)C(C)(C)N)CC5)nc4=O)cc3)C[C@@H]12 [Compound 75]	< 0.5 µM	≥ 1 µM	> 32 mg/L	< 8 mg/L	8 to 32 mg/L	> 32 mg/L	< 8 mg/L					
CC(C)(N)C(=O)N1CCN(C(=O)Nc2ccn(-c3ccc(CN4CCC5(CCNC5)C4)cc3)c(=O)n2)CC1 (stereo not drawn) [Compound 80]	< 0.5 µM	≥ 1 µM	> 32 mg/L	< 8 mg/L	> 32 mg/L	> 32 mg/L	< 8 mg/L					
CC(C)(N)C(=O)N1CCN(C(=O)Nc2ccn(-c3ccc(CN4CCC5(CC4)CNC5)cc3)c(=O)n2)CC1 [Compound 83]	0.5 to 1 µM	≥ 1 µM	> 32 mg/L	< 8 mg/L	> 32 mg/L	> 32 mg/L	< 8 mg/L					
CC(C)(N)C(=O)N1CCN(C(=O)Nc2ccn(-c3ccc(CCN4CCC5(CC4)CC5N)cc3)c(=O)n2)CC1 (stereo not drawn) [Compound 94]	< 0.5 µM	≥ 1 µM	> 32 mg/L	< 8 mg/L	8 to 32 mg/L	8 to 32 mg/L	< 8 mg/L					
CC(C)(N)C(=O)N1CCN(C(=O)Nc2ccn(-c3ccc(CCN4CCC5(CCC5N)CC4)cc3)c(=O)n2)CC1 (stereo not drawn) [Compound 95]	< 0.5 µM	≥ 1 µM	> 32 mg/L	< 8 mg/L	> 32 mg/L	> 32 mg/L	< 8 mg/L					
CC(C)(N)C(=O)N1CCN(C(=O)Nc2ccn(-c3ccc(CCN4CC5CC(N)C5C4)cc3)c(=O)n2)CC1 (stereo not drawn) [Compound 96]	< 0.5 µM	≥ 1 µM	> 32 mg/L	< 8 mg/L	< 8 mg/L	8 to 32 mg/L	< 8 mg/L					
C[C@@](N)(CO)C(=O)N1CCN(C(=O)Nc2ccn(-c3ccc(CCN4CCC5CC5(N)C4)cc3)c(=O)n2)CC1 (stereo partly drawn) [Compound 99]	0.5 to 1 µM	≥ 1 µM	> 32 mg/L	< 8 mg/L	8 to 32 mg/L	> 32 mg/L	< 8 mg/L					
CC(C)(N)C(=O)N1CCN(C(=O)Nc2ccn(-c3ccc(CCN4CCC5CC5(N)C4)c(F)c3)c(=O)n2)CC1 (stereo not drawn) [Compound 100]	< 0.5 µM	≥ 1 µM	8 to 32 mg/L	< 8 mg/L	< 8 mg/L	> 32 mg/L	< 8 mg/L					
Cc1cc(-n2ccc(NC(=O)N3CCN(C(=O)C(C)(C)N)CC3)nc2=O)ccc1CCN1CCC2CC2(N)C1 (stereo not drawn) [Compound 101]	< 0.5 µM	≥ 1 µM	8 to 32 mg/L	< 8 mg/L	< 8 mg/L	> 32 mg/L	< 8 mg/L					
CC(C)(N)C(=O)N1CCN(C(=O)Nc2ccn(-c3ccc(CCN4C[C@@H]5[C@@H](CN)[C@@H]5C4)c(C(F)(F)F)c3)c(=O)n2)CC1 [Compound 102]	< 0.5 µM	≥ 1 µM	> 32 mg/L	< 8 mg/L	8 to 32 mg/L	8 to 32 mg/L	< 8 mg/L					
CC(C)(N)C(=O)N1CCN(C(=O)Nc2ccn(-c3ccc(CCN4CCC5CC5(N)C4)c(C(F)(F)F)c3)c(=O)n2)CC1 (stereo not drawn) [Compound 103]	0.5 to 1 µM	≥ 1 µM	> 32 mg/L	8 to 32 mg/L	8 to 32 mg/L	> 32 mg/L	8 to 32 mg/L					
CC(C)(N)C(=O)N1CCN(C(=O)Nc2ccn(-c3ccc(C(N)C(=O)N4C[C@@H]5[C@@H](N)[C@@H]5C4)cc3)c(=O)n2)CC1 (stereo partly drawn) [Compound 105]	≥ 1 µM	≥ 1 µM	> 32 mg/L	> 32 mg/L	> 32 mg/L	> 32 mg/L	> 32 mg/L					
CC(C)(N)C(=O)N1CCN(C(=O)Nc2ccn(-c3ccc(CCN4C5CCC4CC(N)C5)cc3)c(=O)n2)CC1 (stereo not drawn) [Compound 106]	≥ 1 µM	≥ 1 µM	> 32 mg/L	< 8 mg/L		> 32 mg/L	< 8 mg/L	++ (An MIC value (μg/mL) that is 8 μg/mL or greater and less than 32 μg/mL)				
CC(C)(N)C(=O)N1CCN(C(=O)Nc2ccn(-c3ccc(CCN4CC5(CCC5N)C4)cc3)c(=O)n2)CC1 (stereo not drawn) [Compound 107]	≥ 1 µM	≥ 1 µM	> 32 mg/L	< 8 mg/L	8 to 32 mg/L	> 32 mg/L	< 8 mg/L					
CC(C)(N)C(=O)N1CCN(C(=O)Nc2ccn(-c3ccc(CCN4C5CCC4CC(N)C5)cc3)c(=O)n2)CC1 (stereo not drawn) [Compound 108]	≥ 1 µM	≥ 1 µM						+ (An MIC (μg/mL) value that is 32 μg/mL or greater)	+ (An MIC (μg/mL) value that is 32 μg/mL or greater)	+++ (An MIC value (μg/mL) that is less than 8 μg/mL)	+ (An MIC (μg/mL) value that is 32 μg/mL or greater)	+++ (An MIC value (μg/mL) that is less than 8 μg/mL)
CC(C)(N)C(=O)N1CCN(C(=O)Nc2ccn(-c3cccc(CCN4CC5(CC(N)C5)C4)c3)c(=O)n2)CC1 [Compound 109]	< 0.5 µM	≥ 1 µM	> 32 mg/L	< 8 mg/L	> 32 mg/L	> 32 mg/L	< 8 mg/L					
CC(C)(N)C(=O)N1CCN(C(=O)Nc2ccn(-c3cccc(CCN4CCC5(CC4)CC(N)C5)c3)c(=O)n2)CC1 [Compound 110]	0.5 to 1 µM	≥ 1 µM	> 32 mg/L	< 8 mg/L	8 to 32 mg/L	> 32 mg/L	< 8 mg/L					
CC(Cc1ccc(-n2ccc(NC(=O)N3CCN(C(=O)C(C)(C)N)CC3)nc2=O)cc1)N1CC2(CCC2N)C1 (stereo not drawn) [Compound 111]	≥ 1 µM	≥ 1 µM	> 32 mg/L	< 8 mg/L	8 to 32 mg/L	> 32 mg/L	< 8 mg/L					
CC(Cc1ccc(-n2ccc(NC(=O)N3CCN(C(=O)C(C)(C)N)CC3)nc2=O)cc1)N1CC2(CC(N)C2)C1 (stereo not drawn) [Compound 112]	0.5 to 1 µM	≥ 1 µM	> 32 mg/L	< 8 mg/L	8 to 32 mg/L	> 32 mg/L	< 8 mg/L					
CC(C)(N)C(=O)N1CCN(C(=O)Nc2ccn(-c3cccc(CCN4CC5CCC(C4)C5N)c3)c(=O)n2)CC1 (stereo not drawn) [Compound 113]	≥ 1 µM	≥ 1 µM	> 32 mg/L	< 8 mg/L	> 32 mg/L	> 32 mg/L	> 32 mg/L					
CC(Cc1ccc(-n2ccc(NC(=O)N3CCN(C(=O)C(C)(C)N)CC3)nc2=O)cc1)N1CCC2(CC1)CC(N)C2 (stereo not drawn) [Compound 114]	< 0.5 µM	≥ 1 µM	8 to 32 mg/L	< 8 mg/L	< 8 mg/L	8 to 32 mg/L	< 8 mg/L					
